According to patent EP4603105A1, “PHARMACEUTICAL COMPOSITION CONTAINING CYCLIC COMPOUND HAVING SELECTIVE KRAS INHIBITORY EFFECT AGAINST HRAS AND NRAS” (CHUGAI SEIYAKU KABUSHIKI KAISHA, priority 2022, dated 2024):
Where two headings read alike, the source gives them in different places.

Tests used:
HRAS wild-type protein = HRAS wild-type protein (Homo sapiens, UniProt P01112); test: Binding to HRAS by surface plasmon resonance (SPR), KD and KD ratio to KRAS
How it was run: (§1)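 Recombinant RAS proteins bearing a biotinylated Avi tag and loaded with GDP served as the captured ligand, recaptured fresh every cycle. Binding responses were referenced to an uncoated surface and a buffer-only blank cycle. Dissociation constants were obtained by 1:1 model fitting at 30°C.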

[1] = test system: human lung cancer strain NCI-H441; test: NCI-H441 cell proliferation inhibitory activity (CellTiter-Glo, 4 days); format: cell-based; settings: read-out: NCl-H441 IC50
How it was run: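 Signal came from […] measured per well once the reagent was added. Beforehand, cells were cultured at 37°C and 5% carbon dioxide on a compound series serially diluted in dimethyl sulfoxide.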

[2] = biological target: GDP-bound NRAS wild-type protein (Homo sapiens, UniProt P01111); test: Binding to NRAS by surface plasmon resonance (SPR), KD and KD ratio to KRAS
GDP-bound NRAS wild-type protein, sequence (P01111 whole entry): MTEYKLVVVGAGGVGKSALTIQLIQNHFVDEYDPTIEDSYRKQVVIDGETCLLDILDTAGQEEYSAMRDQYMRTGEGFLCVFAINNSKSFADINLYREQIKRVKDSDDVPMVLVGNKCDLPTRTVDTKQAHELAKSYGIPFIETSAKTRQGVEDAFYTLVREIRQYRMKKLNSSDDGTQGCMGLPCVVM
How it was run: as §1

[3] = biological target: GDP-bound KRAS wild-type protein (Homo sapiens, UniProt P01116); test: Binding to KRAS by surface plasmon resonance (SPR), dissociation constant KD
GDP-bound KRAS wild-type protein, sequence (P01116 1-188 isoform P01116-2): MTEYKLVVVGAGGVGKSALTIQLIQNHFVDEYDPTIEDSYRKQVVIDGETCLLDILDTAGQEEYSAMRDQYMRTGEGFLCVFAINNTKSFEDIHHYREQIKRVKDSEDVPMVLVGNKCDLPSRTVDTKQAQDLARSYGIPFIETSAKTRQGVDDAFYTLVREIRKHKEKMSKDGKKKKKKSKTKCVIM
How it was run: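 GDP-loaded biotinylated Avi-tag RAS proteins (E. coli-expressed) captured on a Biotin CAPture chip at ~100–300 RU; single-cycle kinetics at 30°C, 100 µL/min, 75 s injections of rising compound concentrations. HBS pH 7.4 running buffer with 1 mM DTT, 10 mM MgCl2, 10 µM GDP, 4% DMSO. KD from 1:1 binding fit.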

[4] = ratio of KD with respect to HRAS wild-type protein to KD with respect to KRAS
[5] = 50% proliferation inhibitory concentration, four days
[6] = ratio of KD with respect to GDP-bound NRAS wild-type protein to KD with respect to KRAS
[7] = Single Cycle Kinetics, 1:1 binding model
[8] = ratio of KD for HRAS wild-type protein to KD for KRAS
[9] = ratio of KD for GDP-bound NRAS wild-type protein to KD for KRAS

HRAS wild-type protein, sequence (P01112 whole entry): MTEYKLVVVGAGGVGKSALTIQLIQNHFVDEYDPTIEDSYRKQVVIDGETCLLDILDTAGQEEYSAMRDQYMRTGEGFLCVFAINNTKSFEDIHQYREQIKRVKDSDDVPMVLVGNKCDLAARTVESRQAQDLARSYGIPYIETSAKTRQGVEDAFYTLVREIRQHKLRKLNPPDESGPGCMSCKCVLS

Row | IC50 [1, 5] [nM] | Kd [3, 7] [nM] | IC50 ([1]; NCI-H441 cells, 4 days) [nM] | Kd ([3]; Single Cycle Kinetics) [nM] | Kd ([3]; 1:1 binding model) [nM] | SMILES | HRAS /KRAS (HRAS wild-type protein; [4]) | NRAS /KRAS [2, 6] | HRAS /KRAS (HRAS wild-type protein; [8]) | NRAS /KRAS [2, 9]
1 | 95.9 | 0.52 | – | – | – | CCO[C@@H]1C[C@H]2C(=O)NC3(CCC3)C(=O)N(C)[C@@H](C3CCCC3)C(=O)N(C)[C@H](C(=O)N3CCOCC3)CC(=O)N(C)[C@@H](Cc3ccsc3)C(=O)N[C@@H]([C@@H](C)CC)C(=O)N(C)CC(=O)N(C)[C@H]3CCCCCN(C3=O)[C@@H](Cc3ccc(C(F)(F)F)cc3)C(=O)N(C)CC(=O)N[C@@H](CCc3cc(F)c(C(F)(F)F)c(F)c3)C(=O)N2C1 [PP1164] | B (a compound having 3 or more and less than 10 is denoted as B) | B (a compound having 3 or more and less than 10 is denoted as B) | – | –
2 | 18.7 | 0.074 | – | – | – | CCO[C@@H]1C[C@H]2C(=O)NC3(CCC3)C(=O)N(C)[C@@H](C3CCCC3)C(=O)N(C)[C@H](C(=O)N(C)C)CC(=O)N(C)[C@@H](CC3CC3)C(=O)N[C@@H]([C@@H](C)CC)C(=O)N(C)CC(=O)N(C)[C@H]3C/C=C\CCN(C3=O)[C@@H](Cc3ccc(C)cc3)C(=O)N(C)CC(=O)N[C@@H](CCc3cc(F)c(C(F)(F)F)c(F)c3)C(=O)N2C1 [PP1407] | A (a compound having 10 or more and less than 20 is denoted as A) | A (a compound having 10 or more and less than 20 is denoted as A) | – | –
3 | – | – | 7.1 | 0.11 | – | CCC[C@H]1C(=O)N[C@@H]([C@@H](C)CC)C(=O)N2CC[C@H]2C(=O)N(C)[C@H]2C/C(F)=C\CCN(C2=O)[C@@H](Cc2ccc(C(F)(F)F)cc2)C(=O)N(C)CC(=O)N[C@@H](CCc2ccc(C(F)(F)F)c(OC)c2)C(=O)N2C[C@H](OCC)C[C@H]2C(=O)N(C)C2(CCC2)C(=O)N(C)[C@@H](C2CCCC2)C(=O)N(C)[C@H](C(=O)N(C)C)CC(=O)N1C [PP3529] | – | – | B (a compound having 3 or more and less than 10 is denoted as B) | B (a compound having 3 or more and less than 10 is denoted as B)
4 | – | – | 18.7 | – | 0.71 | CCOC[C@H]1C(=O)N[C@@H]([C@@H](C)CC)C(=O)N(C)CC(=O)N(C)[C@H]2C/C=C\CCN(C2=O)[C@@H](CC2CCC(F)(F)CC2)C(=O)N(C)CC(=O)N[C@@H](CCc2ccc(C(F)(F)F)c(Cl)c2)C(=O)N2C[C@H](OCC)C[C@H]2C(=O)NC2(CC(C)(C)C2)C(=O)N(C)[C@@H](C(CC)CC)C(=O)N(C)[C@H](C(=O)N(C)C)CC(=O)N1C [PP2460] | – | – | A (a compound having 10 or more and less than 20 is denoted as A) | A (a compound having 10 or more and less than 20 is denoted as A)
5 | – | – | 49.6 | 1.1 | – | CCO[C@@H]1C[C@H]2C(=O)NC3(CC(C)(C)C3)C(=O)N(C)[C@@H](C3CCCC3)C(=O)N(C)[C@H](C(=O)N(C)CC)CC(=O)N(C)[C@@H]([C@H](C)OC)C(=O)N[C@@H]([C@@H](C)CC)C(=O)N3CCC[C@H]3C(=O)N(C)[C@H]3C/C=C\CCN(C3=O)[C@@H](Cc3ccc(C(F)(F)F)cc3)C(=O)N(C)CC(=O)N[C@@H](CCc3cc(F)c(C(F)(F)F)c(F)c3)C(=O)N2C1 [PP3223] | – | – | A (a compound having 10 or more and less than 20 is denoted as A) | A (a compound having 10 or more and less than 20 is denoted as A)
6 | 23.1 | 0.56 | – | – | – | CCC[C@H]1C(=O)N[C@@H]([C@@H](C)CC)C(=O)N(C)CC(=O)N(C)[C@H]2C/C=C\CCN(C2=O)[C@@H](Cc2ccc(C(F)(F)F)cc2)C(=O)N(C)CC(=O)N[C@@H](CCc2cc(F)c(Cl)c(F)c2)C(=O)N2C[C@H](OCC)C[C@H]2C(=O)NC2(CCC2)C(=O)N(C)[C@@H](C(CC)CC)C(=O)N(C)[C@H](C(=O)N(C)C)CC(=O)N1C [PP1231] | A (a compound having 10 or more and less than 20 is denoted as A) | AA (a compound having 20 or more is denoted as AA) | – | –
7 | – | – | 21.3 | – | 0.079 | CCO[C@@H]1C[C@H]2C(=O)NC3(CC(C)(C)C3)C(=O)N(C)[C@@H](C3CCCC3)C(=O)N(C)[C@H](C(=O)N(C)C)CC(=O)N(C)[C@@H](COC)C(=O)N[C@@H]([C@@H](C)CC)C(=O)N(C)CC(=O)N(C)[C@H]3C/C=C\CCN(C3=O)[C@@H](Cc3ccc(C)cc3)C(=O)N(C)CC(=O)N[C@@H](CCc3ccc(C(F)(F)F)c(Cl)c3)C(=O)N2C1 [PP2389] | – | – | B (a compound having 3 or more and less than 10 is denoted as B) | A (a compound having 10 or more and less than 20 is denoted as A)
8 | 14.1 | 0.17 | – | – | – | CCO[C@@H]1C[C@H]2C(=O)NC3(CCC3)C(=O)N(C)[C@@H](C3CCCC3)C(=O)N(C)[C@H](C(=O)N(C)C)CC(=O)N(C)[C@@H](CC)C(=O)N[C@@H]([C@@H](C)CC)C(=O)N(C)CC(=O)N(C)[C@H]3C/C=C\CCN(C3=O)[C@@H](Cc3ccc(C(F)(F)F)cc3)C(=O)N(C)CC(=O)N[C@@H](CCc3ccc(C(F)(F)F)c(C)c3)C(=O)N2C1 [PP1265] | B (a compound having 3 or more and less than 10 is denoted as B) | A (a compound having 10 or more and less than 20 is denoted as A) | – | –
9 | – | – | 23.4 | – | 1.2 | CCO[C@@H]1C[C@H]2C(=O)NC3(CC(C)(C)C3)C(=O)N(C)[C@@H](C(CC)CC)C(=O)N(C)[C@H](C(=O)N(C)C)CC(=O)N(C)[C@@H](COC)C(=O)N[C@@H]([C@@H](C)CC)C(=O)N(C3CC3)CC(=O)N(C)[C@H]3C/C=C\CCN(C3=O)[C@@H](CC3CCC(F)(F)CC3)C(=O)N(C)CC(=O)N[C@@H](CCc3cc(F)c(C(F)(F)F)c(F)c3)C(=O)N2C1 [PP2568] | – | – | B (a compound having 3 or more and less than 10 is denoted as B) | A (a compound having 10 or more and less than 20 is denoted as A)
10 | – | – | 91.3 | – | 2.6 | CCC(CC)[C@H]1C(=O)N(C)[C@H](C(=O)N(C)C)CC(=O)N(C)[C@@H](COC)C(=O)N[C@@H]([C@@H](C)CC)C(=O)N(C2CC2)CC(=O)N(C)[C@H]2C/C=C\CCN(C2=O)[C@@H](Cc2ccc(C)cc2)C(=O)N(C)CC(=O)N[C@@H](CCc2ccc(Cl)c(Cl)c2)C(=O)N2C[C@H](OC(C)C)C[C@H]2C(=O)NC2(CC(C)(C)C2)C(=O)N1C [PP2509] | – | – | A (a compound having 10 or more and less than 20 is denoted as A) | AA (a compound having 20 or more is denoted as AA)
11 | – | – | 26.8 | 0.76 | – | CCC[C@H]1C(=O)N[C@@H](C2CCCC2)C(=O)N(C)CC(=O)N(C)[C@H]2C/C=C\CCN(C2=O)[C@@H](Cc2ccc(C)cc2)C(=O)N(C)CC(=O)N[C@@H](CCc2ccc(C(F)(F)F)c(Cl)c2)C(=O)N2CC3(CC3)C[C@H]2C(=O)NC2(CCC2)C(=O)N(C)[C@@H]([C@@H](C)CC)C(=O)N(C)[C@H](C(=O)N(C)C)CC(=O)N1C [PP3434] | – | – | A (a compound having 10 or more and less than 20 is denoted as A) | A (a compound having 10 or more and less than 20 is denoted as A)
12 | – | – | 29.2 | – | 0.55 | CCOC[C@H]1C(=O)N[C@@H]([C@@H](C)CC)C(=O)N(C)CC(=O)N(C)[C@H]2C/C=C\CCN(C2=O)[C@@H](CC2CCC(F)(F)CC2)C(=O)N(C)CC(=O)N[C@@H](CCc2cc(F)c(C(F)(F)F)c(F)c2)C(=O)N2C[C@H](OCC)C[C@H]2C(=O)NC2(CC(C)(C)C2)C(=O)N(C)[C@@H](C(CC)CC)C(=O)N(C)[C@H](C(=O)N(C)C)CC(=O)N1C [PP2450] | – | – | A (a compound having 10 or more and less than 20 is denoted as A) | A (a compound having 10 or more and less than 20 is denoted as A)
13 | 33.4 | 0.42 | – | – | – | CCO[C@@H]1C[C@H]2C(=O)NC3(CCC3)C(=O)N(C)[C@@H](C(CC)CC)C(=O)N(C)[C@H](C(=O)N(C)C)CC(=O)N(C)[C@@H](CC)C(=O)N[C@@H]([C@@H](C)CC)C(=O)N(C)CC(=O)N(C)[C@H]3C/C=C\CCN(C3=O)[C@@H](Cc3ccc(C(F)(F)F)cc3)C(=O)N(C)CC(=O)N[C@@H](CCc3ccc(Cl)c(Cl)c3)C(=O)N2C1 [PP1215] | A (a compound having 10 or more and less than 20 is denoted as A) | AA (a compound having 20 or more is denoted as AA) | – | –
14 | – | – | 11.2 | 0.17 | – | CCC[C@H]1C(=O)N[C@@H](C2CCCC2)C(=O)N(C)CC(=O)N(C)[C@H]2C/C=C\CCN(C2=O)[C@@H](Cc2ccc(C)cc2)C(=O)N(C)CC(=O)N[C@@H](CCc2ccc(C(F)(F)F)c(OC)c2)C(=O)N2CC3(CC3)C[C@H]2C(=O)N(C)C2(CCC2)C(=O)N(C)[C@@H](C(CC)CC)C(=O)N(C)[C@H](C(=O)N(C)C)CC(=O)N1C [PP3316] | – | – | B (a compound having 3 or more and less than 10 is denoted as B) | A (a compound having 10 or more and less than 20 is denoted as A)
15 | – | – | 97.3 | – | 6.2 | CCC(CC)[C@H]1C(=O)N(C)[C@H](C(=O)N(C)C)CC(=O)N(C)[C@@H](C(C)C)C(=O)N[C@@H]([C@@H](C)CC)C(=O)N(C)CC(=O)N(C)[C@H]2C/C=C\CCN(C2=O)[C@@H](CC2CCC(F)(F)CC2)C(=O)N(C)CC(=O)N[C@@H](CCc2cc(F)c(C(F)(F)F)c(F)c2)C(=O)N2C[C@@H](C)C[C@H]2C(=O)NC2(CC(C)(C)C2)C(=O)N1C [PP2496] | – | – | A (a compound having 10 or more and less than 20 is denoted as A) | A (a compound having 10 or more and less than 20 is denoted as A)
